Results published in ChEMBL document CHEMBL5649169 (ChemMedChem, 2018).

Legend:
[1] = molecular target: Fanconi anemia group D2 protein (Homo sapiens) (UniProt Q9BXW9)
[2] = molecular target: Small ribosomal subunit protein eS8 (Homo sapiens) (UniProt P62241)
[3] = molecular target: T-complex protein 1 subunit delta (Homo sapiens) (UniProt P50991)
[4] = molecular target: Serine/threonine-protein phosphatase PGAM5, mitochondrial (Homo sapiens) (UniProt Q96HS1)
[5] = molecular target: Calcium-binding protein 39 (Homo sapiens) (UniProt Q9Y376)
[6] = molecular target: Calmodulin-1 (Homo sapiens) (UniProt P0DP23)
[7] = molecular target: Prohibitin-2 (Homo sapiens) (UniProt Q99623)
[8] = molecular target: Enoyl-CoA delta isomerase 1, mitochondrial (Homo sapiens) (UniProt P42126)
[9] = molecular target: Vesicle-trafficking protein SEC22b (Homo sapiens) (UniProt O75396)
Sequence of Vesicle-trafficking protein SEC22b (Homo sapiens) (O75396 whole entry): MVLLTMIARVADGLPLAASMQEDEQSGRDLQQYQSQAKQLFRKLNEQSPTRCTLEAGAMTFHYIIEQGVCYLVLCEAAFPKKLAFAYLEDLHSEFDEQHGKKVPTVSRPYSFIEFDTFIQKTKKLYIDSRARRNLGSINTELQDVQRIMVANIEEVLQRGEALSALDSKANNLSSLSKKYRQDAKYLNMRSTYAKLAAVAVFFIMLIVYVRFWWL

[10] = molecular target: Large ribosomal subunit protein eL22 (Homo sapiens) (UniProt P35268)
[11] = molecular target: Leucine-rich PPR motif-containing protein, mitochondrial (Homo sapiens) (UniProt P42704)
[12] = molecular target: Protein salvador homolog 1 (Homo sapiens) (UniProt Q9H4B6)
Sequence of Protein salvador homolog 1 (Homo sapiens) (Q9H4B6 whole entry): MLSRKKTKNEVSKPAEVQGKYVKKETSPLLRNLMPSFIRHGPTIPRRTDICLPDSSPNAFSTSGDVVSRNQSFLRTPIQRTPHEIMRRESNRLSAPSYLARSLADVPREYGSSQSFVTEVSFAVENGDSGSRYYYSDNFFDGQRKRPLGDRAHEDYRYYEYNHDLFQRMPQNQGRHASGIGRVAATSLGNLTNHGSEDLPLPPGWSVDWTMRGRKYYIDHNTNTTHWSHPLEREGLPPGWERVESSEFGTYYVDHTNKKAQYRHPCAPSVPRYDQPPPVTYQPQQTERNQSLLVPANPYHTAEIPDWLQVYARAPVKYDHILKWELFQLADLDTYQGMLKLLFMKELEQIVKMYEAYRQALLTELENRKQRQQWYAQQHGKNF

[13] = molecular target: Spectrin alpha chain, non-erythrocytic 1 (Homo sapiens) (UniProt Q13813)
[14] = molecular target: Nuclear transport factor 2 (Homo sapiens) (UniProt P61970)
Sequence of Nuclear transport factor 2 (Homo sapiens) (P61970 whole entry): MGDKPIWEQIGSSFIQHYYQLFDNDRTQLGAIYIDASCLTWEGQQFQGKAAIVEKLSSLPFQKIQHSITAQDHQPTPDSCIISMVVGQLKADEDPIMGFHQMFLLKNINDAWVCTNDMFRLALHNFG

[15] = molecular target: Pre-mRNA-processing factor 6 (Homo sapiens) (UniProt O94906)
[16] = molecular target: Heterogeneous nuclear ribonucleoprotein U-like protein 2 (Homo sapiens) (UniProt Q1KMD3)
[17] = molecular target: Transcriptional repressor p66-alpha (Homo sapiens) (UniProt Q86YP4)
Sequence of Transcriptional repressor p66-alpha (Homo sapiens) (Q86YP4 whole entry): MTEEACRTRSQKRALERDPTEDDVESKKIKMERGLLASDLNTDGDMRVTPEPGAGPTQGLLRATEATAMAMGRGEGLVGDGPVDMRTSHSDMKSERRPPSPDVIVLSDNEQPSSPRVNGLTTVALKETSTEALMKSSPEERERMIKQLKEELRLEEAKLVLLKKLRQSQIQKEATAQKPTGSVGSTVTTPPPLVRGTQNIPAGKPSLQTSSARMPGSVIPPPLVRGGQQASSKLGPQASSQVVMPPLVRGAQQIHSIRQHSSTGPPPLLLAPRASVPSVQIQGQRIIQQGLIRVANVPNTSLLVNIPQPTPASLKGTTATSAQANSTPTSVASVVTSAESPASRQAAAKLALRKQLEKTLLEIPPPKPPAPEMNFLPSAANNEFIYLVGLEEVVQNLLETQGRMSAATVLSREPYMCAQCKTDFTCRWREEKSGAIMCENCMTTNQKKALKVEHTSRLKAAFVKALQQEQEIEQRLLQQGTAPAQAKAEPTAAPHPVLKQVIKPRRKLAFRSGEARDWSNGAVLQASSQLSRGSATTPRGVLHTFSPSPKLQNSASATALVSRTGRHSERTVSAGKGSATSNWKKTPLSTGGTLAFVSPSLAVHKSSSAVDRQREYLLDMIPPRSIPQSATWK

[18] = molecular target: Serine/threonine-protein kinase MRCK gamma (Homo sapiens) (UniProt Q6DT37)
Sequence of Serine/threonine-protein kinase MRCK gamma (Homo sapiens) (Q6DT37 whole entry): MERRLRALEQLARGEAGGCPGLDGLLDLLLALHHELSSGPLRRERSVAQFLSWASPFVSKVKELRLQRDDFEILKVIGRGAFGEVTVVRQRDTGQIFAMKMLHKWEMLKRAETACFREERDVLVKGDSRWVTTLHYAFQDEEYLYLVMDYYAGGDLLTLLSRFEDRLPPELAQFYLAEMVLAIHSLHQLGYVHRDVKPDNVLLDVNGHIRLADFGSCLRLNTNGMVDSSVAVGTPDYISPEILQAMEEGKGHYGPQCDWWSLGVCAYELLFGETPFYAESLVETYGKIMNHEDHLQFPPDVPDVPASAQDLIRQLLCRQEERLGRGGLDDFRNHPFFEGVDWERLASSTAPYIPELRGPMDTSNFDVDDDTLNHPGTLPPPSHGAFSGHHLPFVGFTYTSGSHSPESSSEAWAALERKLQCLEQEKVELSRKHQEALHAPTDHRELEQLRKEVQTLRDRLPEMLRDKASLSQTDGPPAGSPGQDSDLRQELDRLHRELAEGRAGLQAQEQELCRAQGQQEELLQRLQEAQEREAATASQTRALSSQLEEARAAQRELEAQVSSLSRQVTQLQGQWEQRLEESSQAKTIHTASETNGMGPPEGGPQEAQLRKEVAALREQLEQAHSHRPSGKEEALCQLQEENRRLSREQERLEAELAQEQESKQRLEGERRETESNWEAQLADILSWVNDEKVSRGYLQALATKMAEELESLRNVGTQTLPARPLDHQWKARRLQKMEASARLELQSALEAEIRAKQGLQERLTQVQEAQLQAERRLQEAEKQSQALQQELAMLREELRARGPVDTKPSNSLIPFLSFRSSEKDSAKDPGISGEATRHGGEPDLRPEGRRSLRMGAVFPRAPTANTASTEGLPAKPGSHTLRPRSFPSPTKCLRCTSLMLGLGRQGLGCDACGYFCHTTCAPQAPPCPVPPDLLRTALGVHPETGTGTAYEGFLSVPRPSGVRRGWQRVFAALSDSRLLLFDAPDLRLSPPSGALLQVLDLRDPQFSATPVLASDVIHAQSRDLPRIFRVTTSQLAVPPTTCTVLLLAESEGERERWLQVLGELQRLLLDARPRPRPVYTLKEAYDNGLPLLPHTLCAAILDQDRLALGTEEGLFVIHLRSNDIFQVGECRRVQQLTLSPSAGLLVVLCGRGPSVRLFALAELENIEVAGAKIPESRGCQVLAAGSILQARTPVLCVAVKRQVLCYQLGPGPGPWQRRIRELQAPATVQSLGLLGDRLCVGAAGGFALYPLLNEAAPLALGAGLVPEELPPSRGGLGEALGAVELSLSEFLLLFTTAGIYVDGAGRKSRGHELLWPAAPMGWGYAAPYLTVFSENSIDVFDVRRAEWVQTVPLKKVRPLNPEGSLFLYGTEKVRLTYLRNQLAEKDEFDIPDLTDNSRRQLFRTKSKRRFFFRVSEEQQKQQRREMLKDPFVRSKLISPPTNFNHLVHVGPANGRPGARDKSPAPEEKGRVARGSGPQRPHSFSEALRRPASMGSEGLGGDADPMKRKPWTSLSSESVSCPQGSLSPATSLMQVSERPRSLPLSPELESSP

[19] = molecular target: Proteasome subunit alpha type-7 (Homo sapiens) (UniProt O14818)
[20] = molecular target: NADH dehydrogenase [ubiquinone] iron-sulfur protein 3, mitochondrial (Homo sapiens) (UniProt O75489)
[21] = molecular target: Protein phosphatase 1G (Homo sapiens) (UniProt O15355)
Sequence of Protein phosphatase 1G (Homo sapiens) (O15355 whole entry): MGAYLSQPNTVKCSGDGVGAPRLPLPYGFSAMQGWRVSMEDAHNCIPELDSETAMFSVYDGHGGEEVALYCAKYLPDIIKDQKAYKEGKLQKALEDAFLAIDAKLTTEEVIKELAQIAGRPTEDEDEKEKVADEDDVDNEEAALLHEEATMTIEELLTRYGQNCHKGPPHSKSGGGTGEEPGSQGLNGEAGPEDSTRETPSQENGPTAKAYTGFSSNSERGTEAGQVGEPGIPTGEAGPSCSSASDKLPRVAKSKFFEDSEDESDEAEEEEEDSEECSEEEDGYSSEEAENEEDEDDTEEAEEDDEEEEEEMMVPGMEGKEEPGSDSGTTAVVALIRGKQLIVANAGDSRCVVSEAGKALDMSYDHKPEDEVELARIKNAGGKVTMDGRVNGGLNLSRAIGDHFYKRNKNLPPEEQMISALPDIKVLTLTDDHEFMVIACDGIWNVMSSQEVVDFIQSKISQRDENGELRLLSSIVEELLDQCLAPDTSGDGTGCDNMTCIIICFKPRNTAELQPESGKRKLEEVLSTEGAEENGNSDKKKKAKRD

[22] = molecular target: Large ribosomal subunit protein eL24 (Homo sapiens) (UniProt P83731)
[23] = molecular target: Proteasome subunit alpha type-4 (Homo sapiens) (UniProt P25789)
[24] = molecular target: Leucine-rich repeat-containing protein 59 (Homo sapiens) (UniProt Q96AG4)
[25] = molecular target: Squalene synthase (Homo sapiens) (UniProt P37268)
[26] = molecular target: Transmembrane 9 superfamily member 4 (Homo sapiens) (UniProt Q92544)
[27] = molecular target: TBC1 domain family member 15 (Homo sapiens) (UniProt Q8TC07)
[28] = molecular target: Mitogen-activated protein kinase 8 (Homo sapiens) (UniProt P45983)
[29] = molecular target: Protein transport protein Sec23A (Homo sapiens) (UniProt Q15436)
[30] = molecular target: Translation initiation factor eIF2B subunit gamma (Homo sapiens) (UniProt Q9NR50)
[31] = molecular target: Translocation protein SEC63 homolog (Homo sapiens) (UniProt Q9UGP8)
[32] = molecular target: Actin-like protein 6A (Homo sapiens) (UniProt O96019)
[33] = molecular target: Protein FAM83E (Homo sapiens) (UniProt Q2M2I3)
[34] = molecular target: Translation initiation factor eIF2B subunit delta (Homo sapiens) (UniProt Q9UI10)
[35] = molecular target: DNA replication licensing factor MCM7 (Homo sapiens) (UniProt P33993)
[36] = molecular target: Transmembrane protein 33 (Homo sapiens) (UniProt P57088)
[37] = molecular target: Fibroblast growth factor receptor 1 (Homo sapiens) (UniProt P11362)
[38] = molecular target: RAC-alpha serine/threonine-protein kinase (Homo sapiens) (UniProt P31749)
[39] = molecular target: Large ribosomal subunit protein eL30 (Homo sapiens) (UniProt P62888)
[40] = molecular target: ATP synthase F(0) complex subunit f, mitochondrial (Homo sapiens) (UniProt P56134)
[41] = molecular target: Mitochondrial antiviral-signaling protein (Homo sapiens) (UniProt Q7Z434)
[42] = molecular target: ATP-dependent RNA helicase DHX15 (Homo sapiens) (UniProt O43143)
Sequence of ATP-dependent RNA helicase DHX15 (Homo sapiens) (O43143 whole entry): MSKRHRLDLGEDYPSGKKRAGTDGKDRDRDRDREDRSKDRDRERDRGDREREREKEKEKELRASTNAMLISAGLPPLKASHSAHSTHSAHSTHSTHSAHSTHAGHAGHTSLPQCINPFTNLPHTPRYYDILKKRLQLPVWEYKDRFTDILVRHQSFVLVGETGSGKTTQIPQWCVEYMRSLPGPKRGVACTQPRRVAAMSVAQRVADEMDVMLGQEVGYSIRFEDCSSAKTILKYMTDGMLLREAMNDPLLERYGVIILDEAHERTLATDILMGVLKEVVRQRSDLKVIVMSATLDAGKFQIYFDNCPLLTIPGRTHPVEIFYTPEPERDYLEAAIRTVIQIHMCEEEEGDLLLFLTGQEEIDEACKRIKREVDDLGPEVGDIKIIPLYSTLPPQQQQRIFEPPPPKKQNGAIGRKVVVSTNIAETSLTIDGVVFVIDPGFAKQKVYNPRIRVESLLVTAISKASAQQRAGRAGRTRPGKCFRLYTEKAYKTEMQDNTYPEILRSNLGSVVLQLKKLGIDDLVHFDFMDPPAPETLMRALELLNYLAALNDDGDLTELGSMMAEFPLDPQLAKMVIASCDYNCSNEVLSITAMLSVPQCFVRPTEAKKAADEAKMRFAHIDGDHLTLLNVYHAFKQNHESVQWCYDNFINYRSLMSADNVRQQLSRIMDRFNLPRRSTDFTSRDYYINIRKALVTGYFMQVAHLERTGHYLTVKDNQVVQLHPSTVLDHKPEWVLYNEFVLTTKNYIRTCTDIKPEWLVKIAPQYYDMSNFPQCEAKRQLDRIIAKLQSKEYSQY

[43] = molecular target: 26S proteasome regulatory subunit 8 (Homo sapiens) (UniProt P62195)
Calnexin (Homo sapiens) = Calnexin (Homo sapiens) (UniProt P27824)
[44] = molecular target: Conserved oligomeric Golgi complex subunit 8 (Homo sapiens) (UniProt Q96MW5)
[45] = molecular target: Signal peptidase complex subunit 2 (Homo sapiens) (UniProt Q15005)
Sequence of Signal peptidase complex subunit 2 (Homo sapiens) (Q15005 whole entry, one chain of several): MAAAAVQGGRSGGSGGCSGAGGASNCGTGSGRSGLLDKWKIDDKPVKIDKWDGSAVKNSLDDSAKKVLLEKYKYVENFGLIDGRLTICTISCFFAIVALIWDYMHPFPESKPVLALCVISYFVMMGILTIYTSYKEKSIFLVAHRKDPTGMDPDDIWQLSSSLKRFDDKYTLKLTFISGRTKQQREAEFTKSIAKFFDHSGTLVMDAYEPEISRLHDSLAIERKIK
Also: assay method not described here.

Sequence of T-complex protein 1 subunit delta (Homo sapiens) (P50991 whole entry, one chain of several): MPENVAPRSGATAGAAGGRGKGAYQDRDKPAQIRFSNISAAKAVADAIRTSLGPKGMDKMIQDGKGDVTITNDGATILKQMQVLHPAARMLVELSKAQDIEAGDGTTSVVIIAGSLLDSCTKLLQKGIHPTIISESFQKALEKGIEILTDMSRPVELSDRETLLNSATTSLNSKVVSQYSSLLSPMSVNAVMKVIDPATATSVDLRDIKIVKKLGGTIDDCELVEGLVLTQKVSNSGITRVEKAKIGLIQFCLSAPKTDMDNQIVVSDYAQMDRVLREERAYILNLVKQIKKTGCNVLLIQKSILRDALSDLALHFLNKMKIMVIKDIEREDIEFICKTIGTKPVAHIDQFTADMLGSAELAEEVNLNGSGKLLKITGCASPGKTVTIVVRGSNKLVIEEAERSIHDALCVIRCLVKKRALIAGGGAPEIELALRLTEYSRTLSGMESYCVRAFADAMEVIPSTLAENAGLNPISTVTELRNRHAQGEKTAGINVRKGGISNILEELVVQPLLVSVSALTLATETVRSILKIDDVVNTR

## Cc1ccc(C(=O)Nc2cccc(C(F)(F)F)c2)cc1Nc1nc(-c2cccnc2)nc2c1cnn2C
[1]
  ED50: 1.96 µM
[2]
  ED50: 1.62 µM
[3]
  ED50: 1.63 µM
[4]
  ED50: 0.809 µM
[5]
  ED50: 0.157 µM
[6]
  ED50: 0.11 µM
[7]
  ED50: 7.38 µM
[8]
  ED50: 5.02 µM
[9]
  ED50: 103 µM
[10]
  ED50: 784 µM
[11]
  ED50: 0.112 µM
[12]
  ED50: 13.4 µM
[13]
  ED50: 0.08 µM
[14]
  ED50: 0.00217 µM
[15]
  ED50: 151 µM
[16]
  ED50: 32000 µM
[17]
  ED50: 3.46 µM
[18]
  ED50: 17.5 µM
[19]
  ED50: 94.2 µM
[20]
  ED50: 4.77 µM
[21]
  ED50: 0.442 µM
[22]
  ED50: 10.3 µM
[23]
  ED50: 0.151 µM
[24]
  ED50: 0.163 µM
[25]
  ED50: 3.81 µM
[26]
  ED50: 9.65 µM
[27]
  ED50: 0.829 µM
[28]
  ED50: 3.44 µM
[29]
  ED50: 4.18 µM
[30]
  ED50: 10.3 µM
[31]
  ED50: 95700 µM
[32]
  ED50: 3.26 µM
[33]
  ED50: 0.141 µM
[34]
  ED50: 9.56 µM
[35]
  ED50: 5.39 µM
[36]
  ED50: 4.89 µM
[37]
  ED50: 11.2 µM
[38]
  ED50: 33.2 µM
[39]
  ED50: 0.0257 µM
[40]
  ED50: 0.0206 µM
[41]
  ED50: 5.26 µM
[42]
  ED50: 0.372 µM
[43]
  ED50: 7.4 µM
Calnexin (Homo sapiens)
  ED50: 5.64 µM
[44]
  ED50: 0.00417 µM
[45]
  ED50: 0.916 µM

## Cc1ccc(C(=O)Nc2cccc(C(F)(F)F)c2)cc1Nc1nc(-c2cccnc2)nc2nn(C)cc12
[1]
  ED50: 2.28 µM
[2]
  ED50: 9.51 µM
[3]
  ED50: 26.8 µM
[4]
  ED50: 7.34 µM
[5]
  ED50: 0.00782 µM
[6]
  ED50: 0.213 µM
[7]
  ED50: 0.0686 µM
[8]
  ED50: 64 µM
[9]
  ED50: 3.32 µM
[10]
  ED50: 0.00758 µM
[11]
  ED50: 3.28 µM
[12]
  ED50: 0.356 µM
[13]
  ED50: 0.12 µM
[14]
  ED50: 0.419 µM
[15]
  ED50: 2.11 µM
[16]
  ED50: 0.175 µM
[17]
  ED50: 0.041 µM
[18]
  ED50: 0.0947 µM
[19]
  ED50: 17.5 µM
[20]
  ED50: 0.002 µM
[21]
  ED50: 35 µM
[22]
  ED50: 27 µM
[23]
  ED50: 13 µM
[24]
  ED50: 0.0082 µM
[25]
  ED50: 2.93 µM
[26]
  ED50: 95.3 µM
[27]
  ED50: 34.9 µM
[28]
  ED50: 0.0452 µM
[29]
  ED50: 4.91 µM
[30]
  ED50: 0.332 µM
[31]
  ED50: 0.0344 µM
[32]
  ED50: 12.6 µM
[33]
  ED50: 155 µM
[34]
  ED50: 0.308 µM
[35]
  ED50: 50.3 µM
[36]
  ED50: 0.0053 µM
[37]
  ED50: 0.0526 µM
[38]
  ED50: 0.216 µM
[39]
  ED50: 1.58 µM
[40]
  ED50: 0.002 µM
[41]
  ED50: 0.394 µM
[42]
  ED50: 23 µM
[43]
  ED50: 0.443 µM
Calnexin (Homo sapiens)
  ED50: 9.63 µM
[44]
  ED50: 0.819 µM
[45]
  ED50: 2.99 µM
